Experimental findings from patent publication US10485772B2, “Compositions for modulating cancer stem cells and uses therefor” (University of Canberra, priority 2014, dated 2019) are described below.

Type in all cases: cell-based, human
For assay [1], the system named is laminin-5, uPAR and CD44 transcripts in MCF-7 cells. Briefly: TaqMan real time PCR transcript analysis of EMT/CSC genes in MCF-IM model. The procedure:
For most of the experiments, total RNA was extracted from 5×10^5 to 1×10^6 MCF-7 cells unless otherwise specified. Cells were first thawed in 1 mL of Trizol® Reagent (Invitrogen, Carlsbad, Calif.) for 5 minutes at room temperature to inactivate RNases, followed by trituration to dislodge the cell pellet. The dissociated cells suspended in Tizol (1 mL) were transferred into a 1.5 mL Eppendorf tube for 5 minutes for homogenization. RNA was then extracted by addition of 200 μL chloroform and mixing was done vigorously before centrifuging the samples at 8,000×g for 30 minutes at 4° C. The aqueous layer was then collected into a fresh 1.5 mL Eppendorf tube and an equal volume of isopropanolol was added to the aqueous layer and mixed gently. After 5 minutes at room temperature, samples were either snap frozen on dry ice and stored at −70° C. overnight or until the isolation procedure could be re-commenced. After thawing the samples quickly, the samples were again centrifuged at 8,000×g for 30 minutes at 4° C. to precipitate the RNA. To remove all traces of isopropanolol, next the RNA pellets were washed with 1 mL of ice cold 80% ethanol (Analytical UNIVAR, Seattle, Wash.) before centrifuging at 3,600×g for 10 minutes at 4° C. All ethanol then was removed and pellets were allowed to air dry for 5 minutes. RNA samples were then solubilized by re-suspending them in 50 μL of nuclease-free DEPC (Diethylpyrocarbonate treated) water (Ambion, VIC, Australia). Next, 2 μL of the sample was taken out to measure RNA quality and quantity on Nano-drop® Spectrophotometer ND 1000 (Nanodrop Technologies, Inc., Wilmington, Del., USA) using ND-1000 V3.30 software. All the RNA samples were found pure as they had A260/A280 ratio of 1.9-2.1 and this ratio provides an estimate of RNA purity with respect to contaminants such as proteins that absorb in the UV spectrum.
Superscript™® III kit (Invitrogen, Carlsbad, Calif.) was used for cDNA synthesis. Master mix-1 was prepared by adding 1 μL of 5 μM oligo (dT) and 1 μL of 100 mM dNTPs and mixed by flicking. Mastermix-2 was prepared by adding 2 μL of RT buffer, 2 μL of 3 mM mgCl2, 2 μL of DTT mix, 1 μL of RNAse out, 1 μL of superscript III and mixed by flicking. For 1 μg RNA, 2 μL of the master mix-1 was added to the samples, mixed and incubated at 65° C. for 5 minutes and then samples were placed on ice to stop the reaction. This step was followed by addition of 10 μL of the master mix-2 per sample and incubation of samples at 50° C. for 50 minutes. The reaction was then stopped by incubating samples at 85° C. for 5 minutes followed by placing the samples on the ice for 2 minutes. […] All the samples were either snap frozen on dry ice or used immediately for quantitative Real-Time PCR analysis. […]

Assay [2] has as its system MCF-7 cells. Briefly: EMT assay by phase contrast microscopy in MCF-IM model. The settings on record: MCF-IM model; for EMT (morphology): bisindolylmaleimide 1 μM, 1 hr pre-treatment before PMA for 60 hrs. The method, then: EMT assays were performed in 24-well plates (Costar, Corning Inc., Corning, N.Y., USA). For this assay, usually MCF-7 cells were seeded at 4×10^4/well/500 μL media one day before the experiment unless otherwise specified. Cells were stimulated with various EMT stimuli prepared in warm media the following day and monitored for EMT changes under the microscope specified below. The percentage of EMT was generally calculated based on phenotype counting 100 cells per field under the microscope. All the potential EMT stimuli used herein are described in Table 6 and they were prepared and stored as per supplier specification.
Phase contrast microscopy was utilized for EMT and wound healing assays under 10× or 20× magnification of Olympus Fluorescence 1X71 microscope. Images were captured and analyzed as described above except that wound healing assay pictures were also analyzed by Image J software (Free software in Public domain developed by NIH).
The adherent human mammary adenocarcinoma MCF-7 and MDA-MB-231 cells were cultured in low glucose DMEM (Gibco) and both supplemented with 10% FCS, 2 mM L-glutamine and 0.1% PSN antibiotics. […] For Bisindolylmaleimide-I (Calbiochem) or PKC-θ peptide inhibitor (Calbiochem) studies, cells were pre-treated with 1 μM or 30 μM of inhibitor respectively for 1 h prior to stimulation in MCF-7 cells. In case of MDA-MB-231, cells were treated with 4 μM or 30 μM Bisindolylmaleimide-I or PKC-θ peptide inhibitor respectively.
phase contrast microscopy was performed where cells were viewed at ×4 magnification (wound healing assay) or ×10 magnification (EMT) using an Olympus fluorescence IX71 microscope (Olympus) and images were captured using DPController software (2002 Olympus Optical Co. LTD) and analyzed using Photoshop CS3 (Adobe Systems Inc.). Scans were taken with a 10 μm scale bar.

In assay [3] the test system is laminin-5, uPAR and CD44 transcripts in MDA-MB 231 cells. The assay is described as follows: TaqMan real time PCR transcript analysis of EMT/CSC genes in basal/metastatic model. The settings on record: bisindolylmaleimide-I 4 μM. The procedure:
For most of the experiments, total RNA was extracted from 5×10^5 to 1×10^6 MCF-7 cells unless otherwise specified. Cells were first thawed in 1 mL of Trizol® Reagent (Invitrogen, Carlsbad, Calif.) for 5 minutes at room temperature to inactivate RNases, followed by trituration to dislodge the cell pellet. The dissociated cells suspended in Tizol (1 mL) were transferred into a 1.5 mL Eppendorf tube for 5 minutes for homogenization. RNA was then extracted by addition of 200 μL chloroform and mixing was done vigorously before centrifuging the samples at 8,000×g for 30 minutes at 4° C. The aqueous layer was then collected into a fresh 1.5 mL Eppendorf tube and an equal volume of isopropanolol was added to the aqueous layer and mixed gently. After 5 minutes at room temperature, samples were either snap frozen on dry ice and stored at −70° C. overnight or until the isolation procedure could be re-commenced. […] Next, 2 μL of the sample was taken out to measure RNA quality and quantity on Nano-drop® Spectrophotometer ND 1000 (Nanodrop Technologies, Inc., Wilmington, Del., USA) using ND-1000 V3.30 software. […]
Superscript™® III kit (Invitrogen, Carlsbad, Calif.) was used for cDNA synthesis. […] All the samples were either snap frozen on dry ice or used immediately for quantitative Real-Time PCR analysis. […]

The mark [4] stands for this setting: listed as Broad spectrum PKC pathway inhibitor.

On to `Cn1c2ccccc2c2c3c(c4c5ccccc5n(CCC#N)c4c21)CNC3=O` [Go6976], for which the “transcription of key inducible EMT/CSC genes (laminin-5, uPAR, CD44)” value in assay [1] (Go6976 1 μM for 1 hour prior to PMA) is recorded as “failed to inhibit transcription of key inducible EMT/CSC genes”. For the same molecule, in assay [2] (pre-incubation with Go6976), the “PMA-induced EMT-like morphological changes” value is “did not prevent PMA-induced EMT-like morphological changes or CSC formation”.
As to `CN(C)CCCn1cc(C2=C(c3c[nH]c4ccccc34)C(=O)NC2=O)c2ccccc21` [bisindolylmaleimide-I], the “transcription of key inducible EMT/CSC genes (laminin-5, uPAR, CD44)” value in assay [1] (bisindolylmaleimide-I 100 nM for 1 hour prior to PMA) was “cannot inhibit transcription of key inducible EMT/CSC genes”; in assay [1] (bisindolylmaleimide-I 1 μM for 1 hour prior to PMA), “inhibits transcription of key inducible EMT/CSC genes”; in assay [1] (bisindolylmaleimide-I 1 μM for 1 hour prior to PMA, listed as Broad spectrum PKC pathway inhibitor), “inhibition of EMT and CSC formation”; in assay [3] it was “inhibits transcription of key inducible EMT/CSC genes”; in assay [3] (setting [4]), “inhibition of EMT and CSC formation”. The “EMT (morphology)” value is “inhibits EMT” in assay [2]; “inhibition of EMT and CSC formation” in assay [2] (setting [4]).
